The target in one experiment is T1, Human OAT1 (SLC22A6) (Homo sapiens, UniProt Q4U2R8).
T1 construct: host or cells: HEK-293
T1 sequence (Q4U2R8 1-563): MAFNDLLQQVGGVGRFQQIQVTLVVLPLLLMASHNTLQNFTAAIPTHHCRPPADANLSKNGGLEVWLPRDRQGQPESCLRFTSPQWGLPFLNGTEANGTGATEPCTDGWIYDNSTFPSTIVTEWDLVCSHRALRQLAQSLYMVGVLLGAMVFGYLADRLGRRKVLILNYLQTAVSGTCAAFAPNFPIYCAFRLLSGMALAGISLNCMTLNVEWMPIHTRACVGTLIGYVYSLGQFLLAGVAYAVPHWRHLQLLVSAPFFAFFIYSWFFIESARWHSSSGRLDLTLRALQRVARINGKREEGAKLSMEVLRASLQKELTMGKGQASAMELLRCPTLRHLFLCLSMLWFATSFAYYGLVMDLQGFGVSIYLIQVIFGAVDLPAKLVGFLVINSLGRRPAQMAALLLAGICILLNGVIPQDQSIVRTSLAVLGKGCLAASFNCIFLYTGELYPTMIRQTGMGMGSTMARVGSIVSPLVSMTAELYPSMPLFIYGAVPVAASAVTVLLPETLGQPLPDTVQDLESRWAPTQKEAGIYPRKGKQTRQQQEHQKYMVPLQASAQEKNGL
Description: OAT1-mediated cellular uptake in overexpressing HEK-293 cells. It counts as cell-based. The procedure: (§1) Cells were grown in DMEM (Gibco 4196, high glucose, without sodium pyruvate) supplemented with MEM non-essential amino acids and 10% fetal bovine serum. Cells were re-fed with fresh medium after attachment (4–6 h post-seeding). Cell were plated at a density of 4 × 10^5/well in 24-well plates coated with poly-D-lysine. Transporter assays were conducted in 400 µL of HBSS supplemented with 10 mM Hepes, pH 7.4
(§2) The known probe substrates used as positive controls were 3 μM chlorothiazide for OAT1, 2 μM estrone-3-sulfate for OAT3, 10 µM [^3H]gabapentin for LAT1, 50 µM [^3H]Gly-Sar for PepT1, 500 µM thiophene-2-glyoxylic acid for MCT1. The known inhibitors used as controls for each transporter were 100 μM diclofenac for OAT1 and OAT3, 10 µM JPH203 for LAT1 and 200 µM losartan for PepT1. All incubations were in triplicate and contained 1% (OAT1 and OAT3) or 0.5% DMSO (LAT, PepT1 and MCT1). The duration of uptake was 5 min for OAT1 and OAT3, 3 min for LAT1 and PepT1 and 1 min for MCT1. Assays were performed at 37 °C with no shaking, except MCT1 at room temperature. To determine uptake due to the overexpressed transporter per se, uptake was taken as the difference between accumulation between transfected and nontransfected cells in parallel experiments at the same concentration and time. To terminate uptake the plate was placed on ice and cells washed twice with ice-cold transport buffer. […]

The target in a further experiment is T2, Human OAT3 (SLC22A8) (Homo sapiens, UniProt Q8TCC7).
T2 construct: host or cells: HEK-293
T2 sequence (Q8TCC7 1-542): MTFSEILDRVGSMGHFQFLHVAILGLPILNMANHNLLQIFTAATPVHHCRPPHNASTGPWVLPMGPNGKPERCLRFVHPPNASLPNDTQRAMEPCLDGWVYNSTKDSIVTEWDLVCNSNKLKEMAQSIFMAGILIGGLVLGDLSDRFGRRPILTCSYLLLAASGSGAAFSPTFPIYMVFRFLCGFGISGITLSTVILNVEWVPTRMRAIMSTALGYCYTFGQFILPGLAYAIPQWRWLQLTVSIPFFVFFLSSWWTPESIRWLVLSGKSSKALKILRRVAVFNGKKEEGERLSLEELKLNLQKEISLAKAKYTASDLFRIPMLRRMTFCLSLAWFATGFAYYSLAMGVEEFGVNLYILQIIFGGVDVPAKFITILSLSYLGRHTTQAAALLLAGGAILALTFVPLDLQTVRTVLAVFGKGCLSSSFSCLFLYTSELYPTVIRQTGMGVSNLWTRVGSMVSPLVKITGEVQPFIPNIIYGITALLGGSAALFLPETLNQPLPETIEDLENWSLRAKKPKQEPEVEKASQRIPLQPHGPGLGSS
Put plainly: OAT3-mediated cellular uptake in overexpressing HEK-293 cells. The experiment is classed as cell-based. On the procedure:
as §1, §2

As to `CC(=O)N[C@@H](CC(C)C)C(=O)O` [N-acetyl-L-leucine], the “Vmax OAT1 uptake” value on Human OAT1 (SLC22A6) (Michaelis-Menten fit) is reported as 173. Moreover, the “substrate of OAT1 (uptake)” value at Human OAT1 (SLC22A6) (pH 7.4, 5 min) is “substrate”. On Human OAT3 (SLC22A8) (Michaelis-Menten fit), the “Vmax OAT3 uptake” value is 138. Also, the “substrate of OAT3 (uptake)” value on Human OAT3 (SLC22A8) (pH 7.4, 5 min) is recorded as “substrate”.

Source of the values: PMC8338929, “Acetylation turns leucine into a drug by membrane transporter switching” (Scientific Reports, 2021).
